The conditions of series [1]: drug compared with placebo; cited from earlier work.
Series [2] relates to Fat Metabolism in Mice. Kind of series: Determination of ketonuria in mice (urine ketone bodies, Ketostix strips). It is filed as in vivo. Also on record: key to Ketone level: —: No detectable levels of Ketone in the urine; Trace amount of Ketone (6 mg/dL) in the urine; Small amount of Ketone (15 mg/dL) in the urine. The conditions noted are these: week 23; for Ketone level: urine of individual mice; for Average Ketone levels: urine. As to the method:
In a preliminary in vivo experiment, four groups of mice (each group including three or four mice of same genetic background) were tested for levels of ketone bodies in their urine after consumption of the high fat and/or high cholesterol rodent chow diet supplemented with or without at least on biocompatible emulsifier. In this study, all mice in all groups (all being eight weeks old when this study commenced) were fed with high fat/high cholesterol chow diet (Catalog No. 12079B from Research Diets) for eight weeks. Starting at week 9, the diet of all mice was switched to low fat chow (AIN-76A Rodent Diet from Research Diets). For 15 weeks thereafter, the control mice of group A were fed with pure low fat chow while the mice in treated groups, B, C and D, were fed with low fat chow supplemented with at least one biocompatible emulsifier as follow: Group B mice were fed with low fat chow supplemented with 0.5% Hyodeoxycholic acid (HDCA) and 1.25% D-Limonene (DLM). Group C mice were fed with low fat chow supplemented with 5% DLM. Group D mice were fed with low fat chow supplemented with 1.25% HDCA.
At week 23 of the experiment, urine samples from each mice were taken and analyzed for ketone body levels using Ketostix® stips.

Series [3] relates to Fat Metabolism In Human. The experiment in a line: Ketonuria in an individual taking oral HDCA (weekly Ketostix testing). It is filed as in vivo. To be noted: 250 mg orally three times a day (750 mg/day), 10 weeks, no caloric restriction, one individual. An excerpt: (§1) It is know in the art that when hyodeoxycholic acid (a hydrophilic bile acid) is taken orally, it is absorbed through the gut and reaches the liver, but then a large fraction of it, up to 70%, escapes the entero-hepatic circulation, and enters the systemic circulation. See Salvioli et al., European Journal of Clinical Investigation, Vol. 18(1), pp. 22-28 (February 1988). Therefore, the induction of ketonuria is an indication that HDCA upon becoming bioavailable the systemic circulation is able to induce dissolution of the body fat.
(§2) Considering that about 70% of HDCA escapes the entero-hepatic pathway and enters into the systemic blood circulation, the 750 mg/day dose of HDCA averages to concentration of about 270 μM in the blood of an average adult person weighing 70 kg, as compared to normal levels of bile salts in the blood which are less than 10 μM. Some embodiments described herein are effective to mimic the high levels of bile salts observed as safe in Example 2, and in so doing are effective to result in the treatment of obesity.
An in vivo experiment was performed to assess the effectiveness of HDCA in causing fat catabolism and treating obesity in human. In this experiment, an overweight individual otherwise healthy took 250 mg of HDCA three times a day (750 mg/day) for a period of 10 weeks without caloric restriction.

Series [4] is described as follows: Escape of oral HDCA from the entero-hepatic circulation into the systemic circulation. It is filed as in vivo, human. To be noted: 750 mg/day dose, average adult person weighing 70 kg, assuming about 70% enters systemic circulation.
Description: as §1, §2

The conditions of series [5]: taken orally, cited from earlier work.
For series [6] the following is noted: wild-type mice provided dietary HDCA; cited from earlier work.
In series [7] the test system is C57BL/6 LDL r-KO knockout mice. The conditions noted are these: HDCA fed, relative to mice not provided HDCA; cited from earlier work.
The mark [8] stands for this setting: low fat chow + 1.25% HDCA (Group D).
Where [9] appears, read: low fat chow + 5% DLM (Group C).

Structures are written as SMILES. “And” between values parts separate entries of the source, which are not always exact repeats. Identical values can stand only once. “Also recorded” adds a separate entry of the source. Like-named read-outs stand apart in the source and are kept apart here.

Regarding `CC(C)(N)Cc1ccccc1` [phentermine], in series [1], the Weight loss entry was “about 5 % of body weight”.
On to `CCN[C@@H](C)Cc1cccc(C(F)(F)F)c1` [dexfenfluramine], for which, in series [1], the Weight loss result was “about 5 % of body weight”.
In the case of `CC(C)CC(N(C)C)C1(c2ccc(Cl)cc2)CCC1` (centres unmarked) [sibutramine], the Weight loss result in series [1] is recorded as “about 5 % of body weight”.
As for `C[C@H](CCC(=O)O)[C@H]1CC[C@H]2[C@@H]3C[C@H](O)[C@@H]4C[C@H](O)CC[C@]4(C)[C@H]3CC[C@]12C` [HDCA, hyodeoxycholic acid], the Ketone level result in series [2] (setting [8]) was “— and T (Trace amount of Ketone (6 mg/dL) in the urine) and S (Small amount of Ketone (15 mg/dL) in the urine)”. In addition, the “Average Ketone levels” value in series [2] (setting [8]) was 100. In series [3], the “Ketonuria / ketotic state” value is recorded as “mild ketonuria; also recorded: mild ketotic state”. In addition, the “Average concentration in the blood” value in series [4] is “about 270 μM”. For the same compound, the results for the “Fraction escaping the entero-hepatic circulation and entering the systemic circulation” value in series [5] and in series [5] (listed as hyodeoxycholic acid) were “about 70%” and “up to 70%”, respectively. In addition, in series [6], the Plasma levels result was “up to 50 μM”. Besides, the “Rate of formation of atherosclerotic plaque” value in series [7] is reported as “reduced rate of formation of atherosclerotic plaque”.
As to `CCCCCCCCCCC[C@@H](C[C@@H]1OC(=O)[C@H]1CCCCCC)OC(=O)[C@H](CC(C)C)NC=O` [orlistat], the Weight loss entry in series [1] is recorded as “about 5 % of body weight”.
For the compound `C=C(C)[C@H]1CC=C(C)CC1` [DLM, D-Limonene], in series [2] (setting [9]), the Ketone level result was “— and T (Trace amount of Ketone (6 mg/dL) in the urine) (2×) and S (Small amount of Ketone (15 mg/dL) in the urine)”; the “Average Ketone levels” value came out at 42.

The values above are taken from patent US20140148422A1, “TREATMENT OF GLUCOSE INTOLERANCE” (AtheroNova Operations, Inc., priority 2009, published 2014).
